Assay results as given in patent publication US6511804B1, “Selective assay for determining the identity of live microorganisms in a mixed culture” (priority 1998, dated 2003).
Where two headings read alike, the source gives them in different places.

Key:
E. coli = type: cell-based
P. mirabilis = assay: Ampicillin resistance of the P. mirabilis strain; type: cell-based, Proteus mirabilis; settings: P. mirabilis strain used in these studies
E. coli (C600) [1] = assay: Mixed culture P. mirabilis:E. coli 50:1 with ampicillin, BrdU immunocapture and FlaA PCR; type: cell-based; settings: 50:1 P. mirabilis:E. coli; L-broth with 5, 10, or 20 μg/ml ampicillin
E. coli (C600) [2] = assay: Ampicillin sensitivity of E. coli C600 as stated; type: cell-based
E. coli strain W3110 = assay: Growth curves of E. coli strain W3110 in L-broth with antibiotic or BrdU; type: cell-based; settings: FIG. 3
[3] = test system: T. denticola (ATCC number 35405); assay: BrdU immunocapture/PCR antibiotic sensitivity of Treponema denticola; type: cell-based; settings: FIG. 9; for BrdU incorporation / immunocapture PCR signal: T. denticola; for sensitivity or resistance of T. denticola: anaerobic culture, no negative immunocapture control
Description: Treponema denticola was also studied using the invention. In these studies, a culture of T. denticola (ATCC number 35405) was inoculated into fresh media and grown anaerobically for 1 day in NOS media (ATCC media formulation 1494). The cultures were grown as in Part A of this Example, except that the cultures were incubated for about 8 hours prior to the addition of BrdU, they were incubated overnight after the addition of BrdU, and the samples were analyzed the next day. The PCR was conducted in the manner described above, except that a GroEL primer set was not available and a primer set for the FlgE gene (endoflagellar subunit protein) referred to FlgE001 and FlgE006 was substituted. These primers were expected to give rise to a 542 bp PCR fragment.

[4] = test system: H. actinomycetemcomitans (ATCC No. 43718); assay: BrdU immunocapture/PCR antibiotic sensitivity of H. actinomycetemcomitans; type: cell-based, Haemophilus actinomycetemcomitans; settings: anaerobic culture; FIG. 8
Description: H. actinomycetemcomitans is reported to be a human pathogen, and has been implicated in juvenile periodontitis. In these studies, a culture of H. actinomycetemcomitans (ATCC No. 43718; previously known as Actinobacillus actinomycetemcomitans) was grown to saturation under anaerobic conditions as in part A, above, except that hemin was not added to the medium. The culture was diluted 1:10 into fresh media, and grown for a further 4 hours under anaerobic conditions. At this point, the culture was divided into aliquots and subjected to the same testing protocol as was employed in part A of this Example, except that after the BrdU was added, the 2 hour incubation was followed for convenience by overnight storage under refrigeration at 4° C. The next day, the aliquoted cultures were lysed by the NaOH lysis protocol described above, PCR was performed, and the capture probe set forth in Table 1 for this organism was employed.

[5] = test system: Porphyromonas gingivalis (ATCC No. 33277); assay: BrdU immunocapture/PCR antibiotic sensitivity of Porphyromonas gingivalis; settings: anaerobic culture; 2 hours antibiotic then 2 hours BrdU; FIG. 7
E. coli strain NK5830 [6] = type: cell-based; settings: antibiotic at final concentration 100 μg/ml, FIG. 3
E. coli strain NK5830 [7] = assay: BrdU immunocapture/PCR antibiotic sensitivity assay, strain NK5830; settings: antibiotic 100 μg/ml, FIG. 4

CC1(C)S[C@@H]2[C@H](NC(=O)[C@H](N)c3ccccc3)C(=O)N2[C@H]1C(=O)O [Ampicillin]
detectable BrdU compared to the control (E. coli; E. coli strain W3110): lack of detectable BrdU compared to the control
effect on cells (lysis) (E. coli; E. coli strain W3110): lysed
ampicillin concentration to which the strain is resistant (P. mirabilis): over 400 μg/ml
PCR products obtained (E. coli 1 kb / P. mirabilis 800 bp) (E. coli (C600) [1]): only the P. mirabilis PCR product
sensitivity to ampicillin (E. coli (C600) [2]): extremely sensitive

O=c1[nH]c(=O)n([C@H]2C[C@H](O)[C@@H](CO)O2)cc1Br [BrdU, 5-bromo-2′-deoxyuridine]
growth profile after addition of BrdU (E. coli strain W3110; BrdU added at 2.5 hours): did not change the growth profile

O=C(N[C@H](CO)[C@H](O)c1ccc([N+](=O)[O-])cc1)C(Cl)Cl [Chloramphenicol]
effect on the growth of E. coli (E. coli): significantly reduced growth

[H]/N=C(/N)N[C@H]1[C@H](O)[C@@H](O)[C@H](O[C@@H]2O[C@@H](C)[C@](O)(C=O)[C@H]2O[C@@H]2O[C@@H](CO)[C@H](O)[C@@H](O)[C@@H]2NC)[C@@H](N/C(N)=N\[H])[C@@H]1O [Streptomycin]
effect on the growth of E. coli (E. coli): little or no effect

Cc1ncc([N+](=O)[O-])n1CCO [metronidazole]
BrdU incorporation / immunocapture PCR signal [3]: level of BrdU incorporation is at background
sensitivity or resistance of T. denticola [3]: sensitive
sensitivity or resistance of H. actinomycetemcomitans [4]: resistance
sensitivity or resistance of P. gingivalis [5]: sensitive

CCn1cc(C(=O)O)c(=O)c2ccc(C)nc21 [nalidixic acid]
growth (growth curve) (E. coli strain W3110; antibiotic at final concentration 100 μg/ml): inhibited growth
effect on the growth of E. coli (E. coli): greatest effect
BrdU incorporation / immunocapture PCR signal [3]: equivalent to the positive control
sensitivity or resistance of T. denticola [3]: resistant
growth (growth curve) (E. coli strain NK5830 [6]): did not cause any growth inhibition
sensitivity or resistance of H. actinomycetemcomitans [4]: sensitivity
immunocapture/PCR signal (BrdU-labeled DNA, gel) (E. coli strain NK5830 [7]): strong positive signal
sensitivity or resistance of P. gingivalis [5]: resistant

gentamycin
effect on the growth of E. coli (E. coli; compared to controls grown in the absence of the antibiotic): greatest effect
